Test results published in patent US20230295260A1, “GLP RECEPTOR AGONISTS” (HEPTARES THERAPEUTICS LIMITED, priority 2020, published 2023).
Entries after “also recorded” stand apart in the source; their conditions may differ. Non-standard residues stand in square brackets, D forms with d. Residues, ends and D or L forms follow the SMILES beside them. *: point of attachment. Malonyl(2,2-Me2,histaminyl) = CC(C)(C(=O)NCCc1cnc[nH]1)C(=O)*; Ala(1H-tetrazol-5-yl) = N[C@@H](Cc1nnn[nH]1)C(=O)O; αMePhe(2-F) = C[C@](N)(Cc1ccccc1F)C(=O)O; Nle = CCCC[C@H](N)C(=O)O; Alloc = C=CCOC(=O)*

Legend:
human GLP1 receptor = molecular target: T1, human GLP1 receptor (Homo sapiens, UniProt P43220); assay: cAMP accumulation assay (HTRF), functional agonism of human GLP1 receptor in HEK cells; format: cell-based; conditions: HEK cells, human GLP1 receptor BacMam, 45 min 37° C.; for Emax: HEK293, read-out: Human GLP-1R agonist cAMP Emax; for EC50: read-out: Human GLP-1R agonist cAMP pEC50 (converted)
T1 construct: expressed in transfected cells; host or cells: HEK cells, BacMam virus transduction
T1 sequence (P43220 24-463): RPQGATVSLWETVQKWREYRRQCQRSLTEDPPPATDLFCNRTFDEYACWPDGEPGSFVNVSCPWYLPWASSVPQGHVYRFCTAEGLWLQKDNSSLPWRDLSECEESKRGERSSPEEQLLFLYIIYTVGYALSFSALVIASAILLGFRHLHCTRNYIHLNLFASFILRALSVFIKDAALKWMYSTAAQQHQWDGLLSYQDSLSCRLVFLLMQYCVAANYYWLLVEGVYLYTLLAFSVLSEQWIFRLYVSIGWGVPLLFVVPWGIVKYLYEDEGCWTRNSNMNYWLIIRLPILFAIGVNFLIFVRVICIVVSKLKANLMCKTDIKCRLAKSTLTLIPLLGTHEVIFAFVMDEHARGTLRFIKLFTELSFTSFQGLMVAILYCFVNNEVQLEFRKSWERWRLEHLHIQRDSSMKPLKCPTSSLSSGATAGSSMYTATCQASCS

C57BL/6J male mice [1] = assay: Effect on glucose tolerance (OGTT) in normal mice (FIG. 3); format: in vivo, mouse; conditions: mice fasted 6 h, 270 nmol/kg sc 1 hour before 2 g/kg oral glucose (liraglutide 200 ug/kg iv)
Procedure: One hour before glucose challenge, Example 1 or 3 (270 nmol/kg) or vehicle (0.1% Tween80 in PBS) was administered as a single subcutaneous injection. […] Serial blood glucose measurements were taken at baseline and at timepoints post oral glucose challenge. (A) Time course of blood glucose levels. N=6 animals / grp. Mean +/-SEM.
C57BL/6J male mice (Charles River, Italy, ~8w) are fasted for 6 hours on the day of testing with free access to drinking water. Prior to drug dosing, pre-dose blood glucose measurements are taken using a glucometer (ACCU-CHEK performa, Roche Diagnostic GmbH). Animals are dosed with either the vehicle (0.1% Tween80 in PBS) or compound (270 nmol/kg) via subcutaneous injection. […] 1 hour after dosing, mice are given 2 g/kg oral gavage of glucose and blood is sampled at defined time points for analysis of blood glucose levels. Timepoints of sampling: t=0 (prior to glucose dosing), 15 mins, 30 mins, 60 mins, 120 mins and 180 mins.

C57BL/6J male mice [2] = assay: Dose response effect on intestinal mass in normal mice, 7 day dosing (FIG. 2); format: in vivo, mouse; conditions: daily sc
Procedure: The enhancement of the small bowel wet weight (over vehicle) is plotted as a function of the peptide dose. […] N=6 animals I grp.
C57BL/6J male mice (Charles River, Italy, ~8 weeks) are randomly allocated to the treatment group based on the baseline body weights. Animals are given free access to food and water during the whole duration of the study. Mice are dosed daily with the vehicle or test peptides via subcutaneous injection. On day 7, animals are sacrificed and segments from the upper small intestine (15 cm segment from the pylorus) are collected and weighed (see Example B).

human GLP2 receptor = molecular target: T2, human GLP2 receptor (Homo sapiens, UniProt O95838); assay: cAMP accumulation assay (HTRF), functional agonism of human GLP2 receptor in HEK cells; conditions: for Emax: HEK293, read-out: Human GLP-2R agonist cAMP Emax;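 as to all read-outs here: HEK cells transduced via BacMam to express human GLP2 receptor, agonist-stimulated cAMP measured by HTRF after 45 min at 37 °C in HBSS with 0.5 mM IBMX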
T2 sequence (O95838 1-553): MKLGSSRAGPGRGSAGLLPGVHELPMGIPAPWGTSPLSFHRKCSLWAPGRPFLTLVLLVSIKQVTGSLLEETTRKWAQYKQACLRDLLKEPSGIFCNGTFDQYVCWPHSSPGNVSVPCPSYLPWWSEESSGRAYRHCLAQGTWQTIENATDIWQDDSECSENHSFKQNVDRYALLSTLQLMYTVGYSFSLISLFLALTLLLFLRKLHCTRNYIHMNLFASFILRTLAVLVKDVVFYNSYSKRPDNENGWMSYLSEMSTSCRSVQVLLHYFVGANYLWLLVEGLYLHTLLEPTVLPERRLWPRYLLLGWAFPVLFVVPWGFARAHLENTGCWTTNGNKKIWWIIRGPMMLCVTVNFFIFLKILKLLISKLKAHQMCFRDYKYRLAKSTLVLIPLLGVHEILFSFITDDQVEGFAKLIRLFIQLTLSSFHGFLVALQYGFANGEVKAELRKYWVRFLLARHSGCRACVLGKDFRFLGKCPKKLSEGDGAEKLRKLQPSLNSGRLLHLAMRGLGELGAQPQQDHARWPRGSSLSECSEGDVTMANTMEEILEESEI

C57BL/6J male mice [3] = assay: Effect on intestinal wet weight in normal mice (FIG. 1); format: in vivo, mouse; conditions: once daily sc 270 nmol/kg (liraglutide iv 200 ug/kg), sacrificed on day 3, vs. vehicle
Procedure: Mice were sacrificed on day 3 and the wet weight of the small intestine was quantified. GLP-2 active peptides show significant enhancement of the small intestinal weight. […] N=6 animals / grp. *p < 0.05 vs. vehicle
C57BL/6J male mice (Charles River, Italy, ~8 weeks) are randomly allocated to the treatment group based on the baseline body weights. Animals are given free access to food and water during the whole duration of the study. Mice are dosed daily with the test compounds via subcutaneous injection. […] The abdominal cavity will be opened and the intestinal tissue is excised carefully to avoid perforation. Tissue from the upper small intestine (15 cm segment from the pylorus) is collected. The bowel is cleaned by flushing through with ice cold PBS to remove any feces.

mouse GLP2 receptor = molecular target: T3, mouse GLP2 receptor (Mus musculus, UniProt Q5IXF8); assay: cAMP accumulation assay (HTRF), functional agonism of mouse GLP2 receptor in HEK cells; format: cell-based; conditions: HEK cells transiently transfected, 45 min 37° C.; for Emax: HEK293, read-out: Mouse GLP-2R agonist cAMP Emax; for EC50: read-out: Mouse GLP-2R agonist cAMP pEC50 (converted)
T3 construct: expressed in transfected cells; host or cells: HEK cells, transient transfection with GeneJuice
T3 sequence (Q5IXF8 1-512): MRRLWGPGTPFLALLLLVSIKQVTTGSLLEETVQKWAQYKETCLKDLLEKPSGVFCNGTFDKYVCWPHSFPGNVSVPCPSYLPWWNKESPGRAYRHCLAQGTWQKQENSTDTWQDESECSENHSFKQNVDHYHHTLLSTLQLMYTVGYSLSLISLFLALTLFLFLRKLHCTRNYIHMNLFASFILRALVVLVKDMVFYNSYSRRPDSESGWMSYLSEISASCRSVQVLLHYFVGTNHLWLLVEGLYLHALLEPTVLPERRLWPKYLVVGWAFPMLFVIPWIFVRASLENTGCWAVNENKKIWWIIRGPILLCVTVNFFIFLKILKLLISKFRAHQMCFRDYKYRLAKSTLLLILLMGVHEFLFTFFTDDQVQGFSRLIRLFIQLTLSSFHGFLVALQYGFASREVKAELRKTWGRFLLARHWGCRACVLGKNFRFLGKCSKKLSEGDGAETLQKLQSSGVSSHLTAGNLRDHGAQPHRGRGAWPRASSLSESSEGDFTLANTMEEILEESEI

mouse GLP1 receptor = molecular target: T4, mouse GLP1 receptor (Mus musculus, UniProt O35659); assay: cAMP accumulation assay (HTRF), functional agonism of mouse GLP1 receptor in HEK cells; format: cell-based; conditions: HEK cells transiently transfected, 45 min 37° C.; for Emax: HEK293, read-out: Mouse GLP-1 R agonist cAMP Emax; for EC50: read-out: Mouse GLP-1 R agonist cAMP pEC50 (converted)
T4 construct: expressed in transfected cells; host or cells: HEK cells, transient transfection with GeneJuice
T4 sequence (O35659 22-463): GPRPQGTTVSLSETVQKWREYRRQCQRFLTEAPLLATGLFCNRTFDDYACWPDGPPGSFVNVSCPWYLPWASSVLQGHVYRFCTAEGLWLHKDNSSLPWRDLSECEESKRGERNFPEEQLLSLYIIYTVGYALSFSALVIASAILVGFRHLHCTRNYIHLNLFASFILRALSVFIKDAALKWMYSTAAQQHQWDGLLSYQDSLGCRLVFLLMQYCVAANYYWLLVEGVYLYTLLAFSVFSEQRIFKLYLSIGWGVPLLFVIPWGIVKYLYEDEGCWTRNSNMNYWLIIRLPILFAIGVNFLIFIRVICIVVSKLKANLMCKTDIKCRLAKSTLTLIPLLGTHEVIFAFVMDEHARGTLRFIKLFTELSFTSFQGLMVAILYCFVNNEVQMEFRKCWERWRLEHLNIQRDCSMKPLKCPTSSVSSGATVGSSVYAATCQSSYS

Emax (human GLP1 receptor)	EC50 (human GLP1 receptor)	EC50 (human GLP2 receptor)	Emax (human GLP2 receptor)	Emax (mouse GLP2 receptor)	EC50 (mouse GLP2 receptor)	Emax (mouse GLP1 receptor)	EC50 (mouse GLP1 receptor)	Structure (SMILES)	peak blood glucose concentration in OGTT (C57BL/6J male mice [1])	enhancement of small bowel wet weight (over vehicle) as a function of dose (C57BL/6J male mice [2])	wet weight of the small intestine (C57BL/6J male mice [3])
94.1%	3.16 nM	0.01 nM	102%	102%	0.2 nM	95.9%	3.16 nM	C=CCOC(=O)NCCCC[C@H](NC(=O)[C@H](CC(C)C)NC(=O)[C@H](CC(=O)O)NC(=O)[C@H](CC(C)C)NC(=O)[C@@H](NC(=O)[C@@H](NC(=O)[C@@H](Cc1ccccc1)NC(=O)[C@H](CCCC)NC(=O)[C@H](CCC(=O)O)NC(=O)[C@H](CC(=O)O)NC(=O)[C@H](CO)NC(=O)[C@H](Cc1ccccc1)NC(=O)[C@H](CO)NC(=O)CNC(=O)[C@H](Cc1nn[nH]n1)NC(=O)C(C)(C)C(=O)NCCc1c[nH]cn1)[C@@H](C)O)[C@@H](C)CC)C(=O)N[C@@H](C)C(=O)N[C@@H](C)C(=O)N[C@@H](CCCCN)C(=O)N[C@@H](CC(=O)O)C(=O)N[C@@H](Cc1ccccc1)C(=O)N[C@H](C(=O)N[C@@H](CC(N)=O)C(=O)N[C@@H](Cc1c[nH]c2ccccc12)C(=O)N[C@@H](CC(C)C)C(=O)N[C@H](C(=O)N[C@@H](CCC(N)=O)C(=O)N[C@H](C(=O)N[C@@H](CCCCN)C(=O)N[C@H](C(=O)N[C@H](C(=O)N[C@@H](CC(=O)O)C(N)=O)[C@@H](C)O)[C@@H](C)CC)[C@@H](C)O)[C@@H](C)CC)[C@@H](C)CC [Example 1] ({Malonyl(2,2-Me2,histaminyl)}-[Ala(1H-tetrazol-5-yl)]GSFSDE[Nle][dF]TILDLK(Alloc)AAKDFINWLIQTKITD-NH2)	significantly reduced	greater maximal enhancements in small intestinal wet weight compared to Teduglutide; also recorded: dose dependent enhancements in the wet weight of the small intestine	superior enhancements in intestinal weight compared to Teduglutide; also recorded: Significant enhancement of intestinal wet weight
60.3%	316 nM		101%	100%	0.00794 nM	1%	> 794 nM	CC[C@H](C)[C@H](NC(=O)[C@H](Cc1ccccc1)NC(=O)[C@H](CC(=O)O)NC(=O)[C@H](CCCNC(=N)N)NC(=O)[C@H](C)NC(=O)[C@H](C)NC(=O)[C@H](CC(C)C)NC(=O)[C@H](CC(N)=O)NC(=O)[C@H](CC(=O)O)NC(=O)[C@H](CC(C)C)NC(=O)[C@@H](NC(=O)[C@@H](NC(=O)[C@H](CC(N)=O)NC(=O)[C@H](CCSC)NC(=O)[C@H](CCC(=O)O)NC(=O)[C@H](CC(=O)O)NC(=O)[C@H](CO)NC(=O)[C@H](Cc1ccccc1)NC(=O)[C@H](CO)NC(=O)CNC(=O)[C@H](CC(=O)O)NC(=O)CNC(=O)[C@@H](N)Cc1c[nH]cn1)[C@@H](C)O)[C@@H](C)CC)C(=O)N[C@@H](CC(N)=O)C(=O)N[C@@H](Cc1c[nH]c2ccccc12)C(=O)N[C@@H](CC(C)C)C(=O)N[C@H](C(=O)N[C@@H](CCC(N)=O)C(=O)N[C@H](C(=O)N[C@@H](CCCCN)C(=O)N[C@H](C(=O)N[C@H](C(=O)N[C@@H](CC(=O)O)C(=O)O)[C@@H](C)O)[C@@H](C)CC)[C@@H](C)O)[C@@H](C)CC [Teduglutide, reference compound]		dose dependent enhancements in the wet weight of the small intestine	Significant enhancement of intestinal wet weight
99.2%	0.0794 nM	0.0158 nM	102%	103%	0.501 nM	99.5%	0.398 nM	C=CCOC(=O)NCCCC[C@H](NC(=O)[C@H](CC(C)C)NC(=O)[C@H](CC(=O)O)NC(=O)[C@H](CC(C)C)NC(=O)[C@@H](NC(=O)[C@@H](NC(=O)[C@@H](Cc1ccccc1)NC(=O)[C@H](CCCC)NC(=O)[C@H](CCC(=O)O)NC(=O)[C@H](CC(=O)O)NC(=O)[C@H](CO)NC(=O)[C@](C)(Cc1ccccc1F)NC(=O)[C@H](CO)NC(=O)CNC(=O)[C@H](Cc1nn[nH]n1)NC(=O)C(C)(C)C(=O)NCCc1c[nH]cn1)[C@@H](C)O)[C@@H](C)CC)C(=O)N[C@@H](C)C(=O)N[C@@H](C)C(=O)N[C@@H](CCCCN)C(=O)N[C@@H](CC(=O)O)C(=O)N[C@@H](Cc1ccccc1)C(=O)N[C@H](C(=O)N[C@@H](CC(N)=O)C(=O)N[C@@H](Cc1c[nH]c2ccccc12)C(=O)N[C@@H](CC(C)C)C(=O)N[C@H](C(=O)N[C@@H](CCC(N)=O)C(=O)N[C@H](C(=O)N[C@@H](CCCCN)C(=O)N[C@H](C(=O)N[C@H](C(=O)N[C@@H](CC(=O)O)C(N)=O)[C@@H](C)O)[C@@H](C)CC)[C@@H](C)O)[C@@H](C)CC)[C@@H](C)CC [Example 3] ({Malonyl(2,2-Me2,histaminyl)}-[Ala(1H-tetrazol-5-yl)]GS[αMePhe(2-F)]SDE[Nle][dF]TILDLK(Alloc)AAKDFINWLIQTKITD-NH2)	significantly reduced	greater maximal enhancements in small intestinal wet weight compared to Teduglutide; also recorded: dose dependent enhancements in the wet weight of the small intestine	superior enhancements in intestinal weight compared to Teduglutide; also recorded: Significant enhancement of intestinal wet weight
